These results are taken from paper PMC7785020, “A unique hormonal recognition feature of the human glucagon-like peptide-2 receptor” (Cell Research, 2020).

Test [1] addresses T1, GLP-2R H268^3.37A (Homo sapiens, UniProt O95838, H268A).
T1 sequence (O95838 1-553 H268A): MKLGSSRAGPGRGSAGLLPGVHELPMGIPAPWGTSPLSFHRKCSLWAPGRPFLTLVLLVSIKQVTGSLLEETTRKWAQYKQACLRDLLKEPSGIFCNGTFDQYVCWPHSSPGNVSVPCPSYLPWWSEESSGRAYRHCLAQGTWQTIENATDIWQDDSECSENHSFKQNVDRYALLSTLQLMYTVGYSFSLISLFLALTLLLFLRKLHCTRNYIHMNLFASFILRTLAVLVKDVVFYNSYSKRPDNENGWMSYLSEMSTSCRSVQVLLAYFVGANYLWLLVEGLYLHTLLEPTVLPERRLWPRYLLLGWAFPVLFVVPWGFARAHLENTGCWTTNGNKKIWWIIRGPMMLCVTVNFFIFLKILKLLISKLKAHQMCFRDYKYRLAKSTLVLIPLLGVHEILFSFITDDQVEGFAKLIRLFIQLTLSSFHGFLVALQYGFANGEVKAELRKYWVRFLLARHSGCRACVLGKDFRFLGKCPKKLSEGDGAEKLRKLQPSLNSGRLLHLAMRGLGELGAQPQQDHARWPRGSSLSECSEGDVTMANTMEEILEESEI
The experiment in a line: radioligand competition binding, H268^3.37A. Conditions: COS-7, H268^3.37A; [^125I]GLP-2(1–33, M10Y) 10–15 pM, 4 h, 4 °C; mean ± SEM, n ≥ 3 in duplicate. More on the design: WT (1–553); expressed in transfected cells. The procedure:
A stepwise oxidation reaction was performed by addition of 6 aliquots of 5 µL ChloramineT (30 µL/mL) with a 1-min interval during constant stirring. The reaction was terminated by the addition of 400 µL phase A (0.1% trifluoracetic acid) before being fractionated into 1 mL volume by reverse-phase high-performance liquid chromatography (RP-HPLC, Waters 600 SimiPrep system) on a C18 column. The iodinated protein was […] by increasing concentrations of phase B (Acetonitrile + 0.1% TFA) and tested for competitive binding ability.
One day before transfection, the COS-7 cells were seeded in 75 cm^2 culture flasks (3 million cells/flask) in DMEM, containing 3.9 g/L NaHCO3 and supplemented with 10% FBS, 1% L-glutamine, 180 units/mL penicillin and 45 µg/mL streptomycin. After an overnight culture at 37 °C, 10% CO2 and 95% air humidity, the cells were transiently transfected with different GLP-2R constructs or pcDNA3.1 vector as previously described.[52] Following 24-h incubation, the cells were transferred to Costa® microtiter plates (150,000 cells/well, PerkinElmer) to achieve a 5%–10% specific binding. […] The cells were then washed twice in binding buffer (4 °C), lysed and counted for radioactivity using a Wallac Gamma Counter (PerkinElmer).

The target in the next test is T2, GLP-2R K231^2.67A (Homo sapiens, UniProt O95838, K231A).
T2 sequence (O95838 1-553 K231A): T1 sequence (O95838 1-553 H268A) with K231A, A268H
Put plainly: cAMP accumulation, K231^2.67A. In kind it is cell-based. More on the design: WT (1–553); expressed in transfected cells; HEK 293T (cAMP). Particulars: Table S3, K231A; HEK 293T, 30 min, RT; mean ± SEM, n ≥ 3 in duplicate; read-out: cAMP Emax (% WT). As to the method: (§1) HEK 293T cells were cultured in Dulbecco’s Modified Eagle’s Medium (DMEM) (Gibco, Waltham, USA) supplemented with 10% (v/v) fetal bovine serum (FBS) (Gibco) and 1% (v/v) sodium pyruvate (Gibco) at 37 °C, 5% CO2 in a humidified incubator. They were seeded onto 6-well cell culture plates and transiently transfected with different GLP-2R constructs using Lipofectamine 2000 transfection reagent (Invitrogen, Carlsbad, CA, USA). After 24 h, the transfected cells were seeded onto 384-well microtiter plates (3000 cells per well) in HBSS supplemented with 5 mM HEPES, 0.1% (w/v) bovine serum albumin (BSA) and 0.5 mM 3-isobutyl-1- methylxanthine, and stimulated with increasing concentrations of GLP-2 for 30 min at RT. Eu and Ulight were diluted by cAMP detection buffer and added to the plates separately to terminate the reaction. Plates were incubated at RT for 60 min before measuring the fluorescence intensity at 620 nm and […] by an EnVision multilabel plate reader (PerkinElmer, Boston, USA).

Test [2] addresses T1, GLP-2R H268^3.37A. Put plainly: cAMP accumulation, H268^3.37A. It is filed as cell-based. The arrangement: WT (1–553); expressed in transfected cells; HEK 293T (cAMP). Conditions: Table S3, H268A; HEK 293T, 30 min, RT; mean ± SEM, n ≥ 3 in duplicate; read-out: cAMP Emax (% WT). The procedure: as §1
(Cyclic AMP is a second messenger, typically raised through Gs and lowered through Gi signalling.)

Substitutions are numbered along the chain they refer to.

On to `CC[C@H](C)[C@H](NC(=O)[C@H](Cc1ccccc1)NC(=O)[C@H](CC(=O)O)NC(=O)[C@H](CCCNC(=N)N)NC(=O)[C@H](C)NC(=O)[C@H](C)NC(=O)[C@H](CC(C)C)NC(=O)[C@H](CC(N)=O)NC(=O)[C@H](CC(=O)O)NC(=O)[C@H](CC(C)C)NC(=O)[C@@H](NC(=O)[C@@H](NC(=O)[C@H](CC(N)=O)NC(=O)[C@H](CCSC)NC(=O)[C@H](CCC(=O)O)NC(=O)[C@H](CC(=O)O)NC(=O)[C@H](CO)NC(=O)[C@H](Cc1ccccc1)NC(=O)[C@H](CO)NC(=O)CNC(=O)[C@H](CC(=O)O)NC(=O)[C@H](C)NC(=O)[C@@H](N)Cc1c[nH]cn1)[C@@H](C)O)[C@@H](C)CC)C(=O)N[C@@H](CC(N)=O)C(=O)N[C@@H](Cc1c[nH]c2ccccc12)C(=O)N[C@@H](CC(C)C)C(=O)N[C@H](C(=O)N[C@@H](CCC(N)=O)C(=O)N[C@H](C(=O)N[C@@H](CCCCN)C(=O)N[C@H](C(=O)N[C@H](C(=O)N[C@@H](CC(=O)O)C(=O)O)[C@@H](C)O)[C@@H](C)CC)[C@@H](C)O)[C@@H](C)CC` [Human GLP-2 (1–33)], for which, at GLP-2R H268^3.37A [1], the “% Binding of WT” value came to 2.1 ± 0.8 %. Further, the Emax on GLP-2R K231^2.67A was 105 ± 3%; at GLP-2R H268^3.37A [2], 118 ± 22.6%.
In the case of `CC[C@H](C)[C@H](NC(=O)[C@H](Cc1ccccc1)NC(=O)[C@H](CC(=O)O)NC(=O)[C@H](CCCNC(=N)N)NC(=O)[C@H](C)NC(=O)[C@H](C)NC(=O)[C@H](CC(C)C)NC(=O)[C@H](CC(N)=O)NC(=O)[C@H](CC(=O)O)NC(=O)[C@H](CC(C)C)NC(=O)[C@@H](NC(=O)[C@@H](NC(=O)[C@H](CC(N)=O)NC(=O)[C@H](CCSC)NC(=O)[C@H](CCC(=O)O)NC(=O)[C@H](CC(=O)O)NC(=O)[C@H](CO)NC(=O)[C@H](Cc1ccccc1)NC(=O)[C@H](CO)NC(=O)CNC(=O)[C@H](CC(=O)O)NC(=O)CNC(=O)[C@@H](N)Cc1c[nH]cn1)[C@@H](C)O)[C@@H](C)CC)C(=O)N[C@@H](CC(N)=O)C(=O)N[C@@H](Cc1c[nH]c2ccccc12)C(=O)N[C@@H](CC(C)C)C(=O)N[C@H](C(=O)N[C@@H](CCC(N)=O)C(=O)N[C@H](C(=O)N[C@@H](CCCCN)C(=O)N[C@H](C(=O)N[C@H](C(=O)N[C@@H](CC(=O)O)C(=O)O)[C@@H](C)O)[C@@H](C)CC)[C@@H](C)O)[C@@H](C)CC` [Teduglutide], the “% Binding of WT” value at GLP-2R H268^3.37A [1] came to 0.7 ± 1.8 %.

The Emax is the maximal effect, on the per cent scale that the assay sets.
